The record followed here is PubChem BioAssay (NCI).

Several values for one entry are separate records, joined by “and”; a condition that tells them apart may be missing. Equal values may be shown once.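 How tested: cells in 96-well plates exposed to compound for 48 hours at five concentrations. GI50 marks 50% less growth. TGI denotes the concentration required for complete inhibition of growth.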 A value given as a limit tells only on which side of the number the result lay.

One experiment concerns SF-295 CNS. Kind of experiment: NCI tumour cell line growth inhibition, 48 h.
Consider `NC(=O)c1csc(C2OC(CO)C(O)C2O)n1` (stereo unspecified), for which the GI50 is > 43.9 µM and 13.6 µM; the TGI is over 8180 µM.
With `CCCN(CCS(C)(=O)=O)Cc1ccc(-c2ccc3ncnc(Nc4ccc(OCc5cccc(F)c5)c(Cl)c4)c3c2)o1`, the GI50 was over 25 µM and the TGI is over 25 µM.
In the case of `CC(C)C[C@H](NC(=O)CNC(=O)c1cc(Cl)ccc1Cl)B1OC(=O)CC(CC(=O)O)(C(=O)O)O1` (stereo partly specified), the GI50 was 0.071 µM and the TGI is 1.14 µM.
Consider `OCC12C3C4C5C3C1C5C42` (stereo unspecified), for which the TGI was over 100 µM.
Turning to `CCCCCCCCCCCCCCCCCC[n+]1ccc2c(C)c3c(c(C)c2c1)c1cc(O)ccc1n3CC`, the GI50 was 1.42 µM and the TGI was 4.3 µM.
The like results for `CCc1ccc2c(c1)N(CCO)C1=C(C(=O)OC1)C2c1cccc(Br)c1` (stereo unspecified) were, in that order, 0.374 µM and 13.2 µM.
The matching figures for `COc1ccc(-c2nc(Nc3cc(C)[nH]n3)c3ccccc3n2)cc1`: 2.61 µM and over 71.4 µM.
`CN(C)CCCn1c(=O)c2ccccc2c2ccccc21`: the GI50 is 7.69 µM and the TGI was 32.8 µM.
The like results for `O=c1[nH]c(=O)n(C2CC(O)C(COP(=O)(OCc3ccc([N+](=O)[O-])o3)N(CCCCCl)CC(O)CO)O2)cc1F` (stereo unspecified) were, in that order, 0.295 µM and over 25.1 µM.
As for `O=C1OC(=O)C(=C\c2ccc3c(c2)OCO3)/C1=C/c1ccc2c(c1)OCO2`, the TGI is over 100 µM.
Take `CC(C)NCCCn1c(Sc2cc3c(cc2I)OCO3)nc2c(N)ncnc21`: the GI50 was 0.143 µM and the TGI is 8.52 µM.
For `COc1ccc(-c2[nH]c3ccccc3c2-c2ccc(OC)cc2)cc1`, the GI50 is 3.33 µM and the TGI was 14 µM.
The like results for `CN1C(=O)N(C)C2C1NN=c1s/c(=C\c3ccc(C(F)(F)F)cc3)c(=O)n12` (stereo unspecified) were, in that order, 0.581 µM and 14.6 µM.
For `C[C@@H]1CN(Cc2ccc(F)cc2)[C@@H](C)CN1C(=O)c1cc2c(C(=O)C(=O)N(C)C)cn(C)c2cc1Cl`, the GI50 was 14.9 µM and the TGI stood at 36.7 µM.
Take `O=C1c2cccnc2C(=O)c2c1c(C(=O)NCCCN1CCCCC1)c1ccccn21`: the GI50 is 0.845 µM and the TGI amounted to 8.45 µM.
As to `COc1ccccc1-c1cc(=O)c2cc(C)cnc2[nH]1`, the GI50 is 31.1 µM and the TGI was over 100 µM.

A further experiment relates to SK-MEL-2 melanoma. Kind of experiment: NCI tumour cell line growth inhibition, 48 h.
Regarding `NC(=O)c1csc(C2OC(CO)C(O)C2O)n1` (stereo unspecified), the TGI amounted to 6440 µM.
In the case of `CCCN(CCS(C)(=O)=O)Cc1ccc(-c2ccc3ncnc(Nc4ccc(OCc5cccc(F)c5)c(Cl)c4)c3c2)o1`, the GI50 was over 25 µM and the TGI is over 25 µM.
Take `CC(C)C[C@H](NC(=O)CNC(=O)c1cc(Cl)ccc1Cl)B1OC(=O)CC(CC(=O)O)(C(=O)O)O1` (stereo partly specified): the GI50 was 0.0399 µM and the TGI was found to be 0.239 µM.
`OCC12C3C4C5C3C1C5C42` (stereo unspecified) came in with a TGI of over 100 µM.
As to `CCCCCCCCCCCCCCCCCC[n+]1ccc2c(C)c3c(c(C)c2c1)c1cc(O)ccc1n3CC`, the GI50 is 1.58 µM and the TGI was found to be 3.27 µM.
For the compound `CCc1ccc2c(c1)N(CCO)C1=C(C(=O)OC1)C2c1cccc(Br)c1` (stereo unspecified), the GI50 was 0.3 µM and the TGI was 7.14 µM.
The like results for `COc1ccc(-c2nc(Nc3cc(C)[nH]n3)c3ccccc3n2)cc1` were, in that order, 0.44 µM and 40.6 µM.
For the compound `CN(C)CCCn1c(=O)c2ccccc2c2ccccc21`, the GI50 was 16.5 µM and the TGI worked out at 33.5 µM.
As for `O=c1[nH]c(=O)n(C2CC(O)C(COP(=O)(OCc3ccc([N+](=O)[O-])o3)N(CCCCCl)CC(O)CO)O2)cc1F` (stereo unspecified), the GI50 was over 73.8 µM and the TGI is over 100 µM.
Compound `O=C1OC(=O)C(=C\c2ccc3c(c2)OCO3)/C1=C/c1ccc2c(c1)OCO2` returned a TGI of over 100 µM.
With `CC(C)NCCCn1c(Sc2cc3c(cc2I)OCO3)nc2c(N)ncnc21`, the GI50 is 0.357 µM and the TGI is over 83.2 µM.
On to `COc1ccc(-c2[nH]c3ccccc3c2-c2ccc(OC)cc2)cc1`, for which the GI50 is 8.31 µM and the TGI worked out at 25.6 µM.
The like results for `CN1C(=O)N(C)C2C1NN=c1s/c(=C\c3ccc(C(F)(F)F)cc3)c(=O)n12` (stereo unspecified) were, in that order, 2.59 µM and 24.1 µM.
Turning to `C[C@@H]1CN(Cc2ccc(F)cc2)[C@@H](C)CN1C(=O)c1cc2c(C(=O)C(=O)N(C)C)cn(C)c2cc1Cl`, the GI50 is 17 µM and the TGI is 36.3 µM.
The like results for `O=C1c2cccnc2C(=O)c2c1c(C(=O)NCCCN1CCCCC1)c1ccccn21` were, in that order, 2.05 µM and 5.17 µM.
Turning to `COc1ccccc1-c1cc(=O)c2cc(C)cnc2[nH]1`, the TGI is over 100 µM.

For another experiment, the system named is SK-MEL-28 melanoma. Put plainly: NCI tumour cell line growth inhibition, 48 h.
As for `NC(=O)c1csc(C2OC(CO)C(O)C2O)n1` (stereo unspecified), the GI50 is > 80.6 µM and 17.2 µM; the TGI turned out to be 1690 µM.
Consider `CCCN(CCS(C)(=O)=O)Cc1ccc(-c2ccc3ncnc(Nc4ccc(OCc5cccc(F)c5)c(Cl)c4)c3c2)o1`, for which the GI50 was over 25 µM and the TGI was over 25 µM.
Consider `CC(C)C[C@H](NC(=O)CNC(=O)c1cc(Cl)ccc1Cl)B1OC(=O)CC(CC(=O)O)(C(=O)O)O1` (stereo partly specified), for which the GI50 is 0.0345 µM and the TGI was determined as 0.191 µM.
`OCC12C3C4C5C3C1C5C42` (stereo unspecified): the TGI is over 100 µM.
On to `CCCCCCCCCCCCCCCCCC[n+]1ccc2c(C)c3c(c(C)c2c1)c1cc(O)ccc1n3CC`, for which the GI50 is 1.91 µM and the TGI turned out to be 4.98 µM.
The like results for `CCc1ccc2c(c1)N(CCO)C1=C(C(=O)OC1)C2c1cccc(Br)c1` (stereo unspecified) were, in that order, 0.473 µM and 14.3 µM.
For the compound `COc1ccc(-c2nc(Nc3cc(C)[nH]n3)c3ccccc3n2)cc1`, the GI50 was 5.12 µM and the TGI is over 100 µM.
